Measured values reported in article PMC5844530, “Fosmetpantotenate (RE-024), a phosphopantothenate replacement therapy for pantothenate kinase-associated neurodegeneration: Mechanism of action and efficacy in nonclinical models” (PLoS ONE, 2018).
Values joined by “and” are separate entries in the source; they are usually repeats but may differ in a detail not shown here. Equal values may be shown once.

Experiments:
[1] = Microdialysis (brain striatal dialysate) in C57Bl6 mice; settings: for Fosmetpantotenate Total Concentration in Mouse Striatal Dialysate (Corrected for Dilution): individual mice, non-fasted male C57/Bl6; for Fosmetpantotenate Total Concentration in Mouse Striatal Dialysate (Corrected for Dilution), Mean: mean of 8 mice
Protocol: Mice were anesthetized using isoflurane (2%, 800 mL/min O2).
For oral dosing experiments, MetaQuant microdialysis probes (regenerated cellulose membrane, BrainLink, the Netherlands) were inserted into the striatum (3 mm exposed surface). Coordinates for the tips of the probes for mice were anterior-posterior (AP) = +0.8 mm from bregma, lateral (L) = -1.7 mm from midline, and ventral (V) = -4.0 mm from dura, the toothbar set at 0 mm.
Microdialysis animal dosing and sample collection: Adult non-fasted male C57Bl6 mice (20–29 g; Harlan Laboratories, Livermore, CA), and Macaca fascicularis (4–9 kg, 3–6 yr old) were used for the experiments. For oral dosing, fosmetpantotenate was formulated as a solution in 20% hydroxypropyl-beta-cyclodextrin in 50 mM citrate buffer in water pH 5.0 and administered using a dose volume of 10 mL/kg. Mice (N = 6 serially sampled) received fosmetpantotenate as a single oral dose at 700 mg/kg and monkeys received a single oral dose at either 100 mg/kg (N = 4 serially sampled) or 300 mg/kg (N = 2 serially sampled).
Microdialysis: On the morning of the microdialysis experiment, a MetaQuant probe was inserted into the guide shaft targeting the head of the caudate nucleus and perfused at a rate of 0.15 μL/min aCSF containing 0.2% (w/v) BSA, with a carrier flow of 0.8 μL/min of ultrapure water.
A single 30 min pre-dose basal dialysate sample was collected from mice over -0.5 to 0 h, and three 30 min basal samples from monkeys over -1.5 to 0 h. Fosmetpantotenate was administered at t = 0, and 30 min dialysate samples were collected for an additional 4 h for mice and 3 h for monkeys.
Sample preparation for mouse dialysate samples: Concentrations of fosmetpantotenate, PA, and PPA in mouse dialysate were determined by Nextcea, Inc, Woburn, MA, using LC-MS/MS. Standard curves and QC samples containing fosmetpantotenate (D1 and D2) and the surrogate analytes for PA and PPA (^15N/^13C3-PA and ^15N/^13C3-PPA) were prepared fresh in 0.1% formic acid in water. Frozen study mouse dialysate samples were thawed in ice/water bath. Standards, QC samples, and thawed study dialysate samples (20 μL) were mixed with 20 μL 0.1% formic acid in water containing internal standard (50 ng/mL of ^15N/^13C3-fosmetpantotenate) and analyzed by LC-MS/MS.
LC-MS/MS analysis for mouse dialysate samples: Concentrations of fosmetpantotenate, PA, and PPA in dialysate from mice were determined by using LC-MS/MS conditions described for blood PK analysis by Nextcea, except dialysate samples were analyzed using an ACIEX API 5000 and flow rate was increased to 0.6 mL/min.
Quantitation of in vivo samples: Peak areas were integrated using Analyst software (AB Sciex, Concord, Ontario, Canada). Calibration curves for all blood samples from mouse and rat PK studies and mouse dialysate samples were prepared by plotting the analyte to internal standard (^15N/^13C3-fosmetpantotenate) peak area ratio vs concentration.

[2] = tested on: liver and brain CoA; test: Labeled experiments: incorporation of isotopically labeled fosmetpantotenate into CoA; type: in vivo, mouse; settings: 125 μg intrastriatally; 6 h
Text: Fosmetpantotenate was labeled with three ^13C and one ^15N in the PA moiety and with one ^18O in the phosphate moiety, as indicated in Fig 10. The premise of this experiment is the following: if PPA incorporated into CoA originates from fosmetpantotenate metabolism, then all isotope labels (including the ^18O) will be retained in the CoA molecule, resulting in an increase in molecular weight of 6 atomic mass units (AMU) with respect to unlabeled CoA ([M+H]^+ = 774.3 vs 768.3, respectively; Fig 10, Path A). However, if fosmetpantotenate is hydrolyzed to PA, and PA is then re-phosphorylated by WT PanK to yield PPA, or if the ^18O is exchanged with water, then the ^18O would be lost in the process, resulting in a CoA molecule with a 4-AMU increase in molecular weight over unlabeled CoA ([M+H]^+ = 772.3 vs 768.3, respectively, […], Path B). CoA derived from endogenous PA/PPA will have the unchanged molecular weight ([M+H]^+ = 768.3).
Animal phase: C57BL6N mice, 8-week old and 19 to 21 g obtained from Charles River (Como, Italy) were used in these studies. One group of mice (N = 3 per time point) received a single oral dose of 500 mg/kg isotopically labeled fosmetpantotenate dissolved in 20% hydroxypropyl-β-cyclodextrin. Another set of mice (N = 8 per time point) received a direct administration of isotopically labeled fosmetpantotenate at 125 μg (25 mg/mL of aCSF containing 147 mM NaCl, 3.0 mM KCl, 1.2 mM CaCl2, and 1.2 mM MgCl2) via cannula into striatum. Brain, liver, and blood samples were collected at pre-dose, 6 h, 12 h (brain only), and 24 h, and were snap frozen in liquid nitrogen.
Two additional groups of mice (N = 6 per time point for each group) received 3 daily doses (8 am, 2 pm, and 8 pm to mimic an anticipated human dosing schedule) of isotopically labeled fosmetpantotenate at either 1.25 μg (0.625 mg/mL aCSF) or 12.5 μg (6.25 mg/mL aCSF) via ICV infusion cannula (2 μL), for up to 10 consecutive days. Brain (striatum) samples were collected at pre-dose, and at 12 h following the third dose on days 1, 3, 7, and 10, and were snap frozen in liquid nitrogen.
Sample processing: Brain (striatum) and liver tissues were homogenized in a Precellys homogenizer (Bertin technologies, Montigny-le-Bretonneux, France) with 3 volumes of water for each volume of tissue (1:4 dilution). Protein was precipitated by adding 500 μL methanol to 100 μL of homogenate (1:6 dilution), mixed well, and centrifuged. Blood cells (1 volume) were treated with 1:8 v:v water:methanol (1:10 dilution), mixed, and centrifuged. The supernatants (200 μL for brain and blood cells and 100 μL for liver) were dried under nitrogen, reconstituted with 100 μL ammonium acetate 10 mM (pH ~5), and injected (10 μL) into the LC for high resolution mass spectrometry (HRMS) analyses.
CoA determination: An Acquity UPLC (Waters) system was used. Samples were chromatographed on a Luna C18 column (50 x 2.0 mm; 5 μm), with a 0.4 mL/min flow rate and a 10 μL injection volume. The mobile phases were (A), 10 mM ammonium acetate in water, pH 6.8 and (B) acetonitrile:2-propanol (9:1; v:v). The gradient was started with 2% (B) and was increased linearly to reach 20% (B) at 5 min; the gradient was ramped to reach 90% (B) at 5.1 min and kept isocratic at 90% (B) through 7.1 min.
The detector was a Waters QTOF Synapt mass spectrometer, with an electrospray ion source operating in the positive scanning mode acquiring in full scan mode (accuracy <5 ppm). The following exact masses were determined: 768.1230 for CoA, 772.1301 for CoA +4 AMU, and 774.1344 for CoA +6 AMU.
The CoA levels obtained by MS/MS analyses were corrected for ^18O isotopic incorporation. CoA levels were not adjusted for the 1% and 2% of ^12C and ^14N, respectively, in the labeled fosmetpantotenate. […]

[3] = single oral 700 mg/kg fosmetpantotenate, collection time 0 hr, BQL=8.08 nM
[4] = single oral 700 mg/kg fosmetpantotenate, collection time 0.5 hr, BQL=8.08 nM
[5] = single oral 700 mg/kg fosmetpantotenate, collection time 1 hr, BQL=8.08 nM
[6] = single oral 700 mg/kg fosmetpantotenate, collection time 1.5 hr, BQL=8.08 nM
[7] = single oral 700 mg/kg fosmetpantotenate, collection time 2 hr, BQL=8.08 nM
[8] = single oral 700 mg/kg fosmetpantotenate, collection time 2.5 hr, BQL=8.08 nM
[9] = single oral 700 mg/kg fosmetpantotenate, collection time 3 hr, BQL=8.08 nM
[10] = single oral 700 mg/kg fosmetpantotenate, collection time 3.5 hr, BQL=8.08 nM
[11] = single oral 700 mg/kg fosmetpantotenate, collection time 4 hr, BQL=8.08 nM
[12] = male, C57Bl6, mouse, striatal dialysate (brain microdialysate), other: direct infusion into the striatum via cannula, 125 µg per animal

## COC(=O)CCNC(=O)[C@H](O)C(C)(C)COP(=O)(N[C@@H](C)C(=O)OC)Oc1ccccc1 (mixture of isomers) [Fosmetpantotenate]
[1]; [3]
  Fosmetpantotenate Total Concentration in Mouse Striatal Dialysate (Corrected for Dilution): BQL
  Fosmetpantotenate Total Concentration in Mouse Striatal Dialysate (Corrected for Dilution), Mean: BQL
[1]; [4]
  Fosmetpantotenate Total Concentration in Mouse Striatal Dialysate (Corrected for Dilution): BQL
  Fosmetpantotenate Total Concentration in Mouse Striatal Dialysate (Corrected for Dilution), Mean: BQL
[1]; [5]
  Fosmetpantotenate Total Concentration in Mouse Striatal Dialysate (Corrected for Dilution): BQL
  Fosmetpantotenate Total Concentration in Mouse Striatal Dialysate (Corrected for Dilution), Mean: BQL
[1]; [6]
  Fosmetpantotenate Total Concentration in Mouse Striatal Dialysate (Corrected for Dilution): BQL
  Fosmetpantotenate Total Concentration in Mouse Striatal Dialysate (Corrected for Dilution), Mean: BQL
[1]; [7]
  Fosmetpantotenate Total Concentration in Mouse Striatal Dialysate (Corrected for Dilution): BQL
  Fosmetpantotenate Total Concentration in Mouse Striatal Dialysate (Corrected for Dilution), Mean: BQL
[1]; [8]
  Fosmetpantotenate Total Concentration in Mouse Striatal Dialysate (Corrected for Dilution): BQL
  Fosmetpantotenate Total Concentration in Mouse Striatal Dialysate (Corrected for Dilution), Mean: BQL
[1]; [9]
  Fosmetpantotenate Total Concentration in Mouse Striatal Dialysate (Corrected for Dilution): BQL
  Fosmetpantotenate Total Concentration in Mouse Striatal Dialysate (Corrected for Dilution), Mean: BQL
[1]; [10]
  Fosmetpantotenate Total Concentration in Mouse Striatal Dialysate (Corrected for Dilution): BQL
  Fosmetpantotenate Total Concentration in Mouse Striatal Dialysate (Corrected for Dilution), Mean: BQL
[1]; [11]
  Fosmetpantotenate Total Concentration in Mouse Striatal Dialysate (Corrected for Dilution): BQL
  Fosmetpantotenate Total Concentration in Mouse Striatal Dialysate (Corrected for Dilution), Mean: BQL
[1]; single oral dose (so in the source) 125 µg fosmetpantotenate per animal, collection time 0 hr
  Fosmetpantotenate Total Concentration in Mouse Striatal Dialysate (Corrected for Dilution): 0.1306 µM and 0.109 µM and 0.0833 µM and 0.3107 µM and 0.3579 µM and 0.2168 µM and 0.4624 µM
[1]; single oral dose (so in the source) 125 µg fosmetpantotenate per animal, collection time 0.5 hr
  Fosmetpantotenate Total Concentration in Mouse Striatal Dialysate (Corrected for Dilution): 27.5961 µM and 228.5933 µM and 5852.2469 µM and 2389.398 µM and 1463.0617 µM and 6013.9111 µM and 2121.0353 µM
[1]; single oral dose (so in the source) 125 µg fosmetpantotenate per animal, collection time 1 hr
  Fosmetpantotenate Total Concentration in Mouse Striatal Dialysate (Corrected for Dilution): 3.7441 µM and 35.9218 µM and 1147.8164 µM and 370.2112 µM and 269.3327 µM and 936.0362 µM and 475.293 µM
[1]; single oral dose (so in the source) 125 µg fosmetpantotenate per animal, collection time 1.5 hr
  Fosmetpantotenate Total Concentration in Mouse Striatal Dialysate (Corrected for Dilution): 0.2457 µM and 3.8638 µM and 77.1139 µM and 16.3443 µM and 13.2241 µM and 54.6749 µM and 52.7026 µM
[1]; single oral dose (so in the source) 125 µg fosmetpantotenate per animal, collection time 2 hr
  Fosmetpantotenate Total Concentration in Mouse Striatal Dialysate (Corrected for Dilution): 0.2142 µM and 1.3919 µM and 11.6398 µM and 2.8307 µM and 6.9839 µM and 18.3812 µM and 13.5798 µM
[1]; single oral dose (so in the source) 125 µg fosmetpantotenate per animal, collection time 2.5 hr
  Fosmetpantotenate Total Concentration in Mouse Striatal Dialysate (Corrected for Dilution): 0.2094 µM and 0.4624 µM and 4.0416 µM and 0.9538 µM and 6.8061 µM and 14.469 µM and 7.8892 µM
[1]; single oral dose (so in the source) 125 µg fosmetpantotenate per animal, collection time 3 hr
  Fosmetpantotenate Total Concentration in Mouse Striatal Dialysate (Corrected for Dilution): 0.1664 µM and 0.2839 µM and 1.9869 µM and 1.0929 µM and 4.1402 µM and 11.268 µM and 3.6164 µM
[1]; single oral dose (so in the source) 125 µg fosmetpantotenate per animal, collection time 3.5 hr
  Fosmetpantotenate Total Concentration in Mouse Striatal Dialysate (Corrected for Dilution): 0.1305 µM and 0.2331 µM and 1.7056 µM and 0.6693 µM and 3.2575 µM and 11.9147 µM and 1.9173 µM
[1]; single oral dose (so in the source) 125 µg fosmetpantotenate per animal, collection time 4 hr
  Fosmetpantotenate Total Concentration in Mouse Striatal Dialysate (Corrected for Dilution): 0.1387 µM and 0.2171 µM and 1.4129 µM and 0.5497 µM and 2.2649 µM and 9.8939 µM and 1.5099 µM
[1]; [12]
  concentration at 0 h: 0.239 µM
  concentration at 0.5 h: 2590 µM
  concentration at 1 h: 463 µM
  concentration at 1.5 h: 31.2 µM
  concentration at 2 h: 7.86 µM
  concentration at 2.5 h: 4.98 µM
  concentration at 3 h: 3.22 µM
  concentration at 3.5 h: 2.83 µM
  concentration at 4 h: 2.28 µM
[1]; striatal dialysate, fosmetpantotenate 700 mg/kg PO, analyte = label, not baseline-adjusted
  Cmax: <LLOQ
[2]
  Brain CoA (%) +6 AMU: 36.2%
